Results reported in publication PMC11079024, “Identification of a family of species-selective complex I inhibitors as potential anthelmintics” (Nature Communications, 2024).
Like-named read-outs stand apart in the source and are kept apart here.

What was measured:
[1] = target: C. elegans (N2) complex I (NADH:ubiquinone oxidoreductase) (Caenorhabditis elegans, UniProt P24887+Q93873+Q94360); test: biochemical; format: biochemical
How it was run: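 Compounds were tested against freeze-thawed isolated mitochondria (0.2 mg/mL protein). NADH:decylubiquinone activity was monitored via DCIP absorbance at 600 nm, and the initial linear slope was normalised to solvent controls.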

[2] = target: B. taurus (heart) complex I (Bos taurus, UniProt P03887+P17694+P42026); test: biochemical; format: biochemical
Chain of B. taurus (heart) complex I (P03887 whole entry): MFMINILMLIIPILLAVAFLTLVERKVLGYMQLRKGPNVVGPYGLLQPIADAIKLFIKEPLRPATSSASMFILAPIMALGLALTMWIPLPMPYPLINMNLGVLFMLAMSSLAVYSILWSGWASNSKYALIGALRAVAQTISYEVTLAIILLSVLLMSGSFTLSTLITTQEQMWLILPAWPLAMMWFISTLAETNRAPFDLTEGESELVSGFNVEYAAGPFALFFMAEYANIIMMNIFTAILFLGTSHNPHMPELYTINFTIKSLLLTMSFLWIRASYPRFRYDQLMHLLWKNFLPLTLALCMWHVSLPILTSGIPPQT
Chain of B. taurus (heart) complex I (P17694 34-463): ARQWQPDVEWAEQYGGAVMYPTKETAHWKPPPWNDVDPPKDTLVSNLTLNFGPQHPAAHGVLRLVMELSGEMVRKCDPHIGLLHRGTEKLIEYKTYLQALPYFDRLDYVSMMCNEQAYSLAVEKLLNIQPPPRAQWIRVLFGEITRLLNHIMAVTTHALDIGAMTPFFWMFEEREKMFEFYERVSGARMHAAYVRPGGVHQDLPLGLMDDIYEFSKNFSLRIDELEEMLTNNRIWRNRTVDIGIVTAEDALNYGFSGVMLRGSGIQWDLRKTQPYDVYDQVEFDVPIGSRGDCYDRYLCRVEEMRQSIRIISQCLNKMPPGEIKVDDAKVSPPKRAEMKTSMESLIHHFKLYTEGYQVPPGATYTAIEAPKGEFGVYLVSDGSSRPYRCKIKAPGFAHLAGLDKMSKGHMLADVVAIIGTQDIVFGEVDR
Chain of B. taurus (heart) complex I (P42026 38-216): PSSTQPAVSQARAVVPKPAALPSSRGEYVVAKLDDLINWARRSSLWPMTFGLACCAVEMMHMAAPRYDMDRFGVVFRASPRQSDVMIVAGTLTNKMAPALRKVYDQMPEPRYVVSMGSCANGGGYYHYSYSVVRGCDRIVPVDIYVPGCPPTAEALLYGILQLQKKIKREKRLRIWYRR
How it was run: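 Complex I activity followed as DCIP reduction (600 nm, 30 s reads, 15 min) with 80 μM NADH and 60 μM decylubiquinone in 25 mM KPi pH 7.5 containing 2 μM antimycin A and 2 mM KCN. Freeze-thawed mouse or bovine heart mitochondria at 0.2 mg/mL; initial-rate percent of solvent control, single-point 100 μM or dose-response.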

[3] = wild-type C. elegans, individual Rep1-Rep4, read-out: percent in vitro complex I activity relative to solvent control, single replicates
[4] = wild-type C. elegans, mean of Rep1-4, read-out: percent in vitro complex I activity relative to solvent control, Mean

Chain of C. elegans (N2) complex I (NADH:ubiquinone oxidoreductase) (Q94360 17-199): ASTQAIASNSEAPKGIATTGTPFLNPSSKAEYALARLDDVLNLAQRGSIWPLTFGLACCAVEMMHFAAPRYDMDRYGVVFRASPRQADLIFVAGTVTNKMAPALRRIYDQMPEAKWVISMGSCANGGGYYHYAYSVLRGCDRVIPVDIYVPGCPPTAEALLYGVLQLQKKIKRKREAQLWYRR
Chain of C. elegans (N2) complex I (NADH:ubiquinone oxidoreductase) (P24887 whole entry): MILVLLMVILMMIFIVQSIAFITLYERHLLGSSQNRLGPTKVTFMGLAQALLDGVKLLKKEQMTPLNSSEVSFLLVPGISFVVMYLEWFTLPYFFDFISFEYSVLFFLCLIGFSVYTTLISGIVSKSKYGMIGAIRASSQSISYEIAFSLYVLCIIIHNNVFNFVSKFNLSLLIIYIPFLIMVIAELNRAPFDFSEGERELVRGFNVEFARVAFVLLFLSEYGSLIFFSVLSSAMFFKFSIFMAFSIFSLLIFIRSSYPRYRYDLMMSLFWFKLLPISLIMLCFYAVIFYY
Chain of C. elegans (N2) complex I (NADH:ubiquinone oxidoreductase) (Q93873 31-482): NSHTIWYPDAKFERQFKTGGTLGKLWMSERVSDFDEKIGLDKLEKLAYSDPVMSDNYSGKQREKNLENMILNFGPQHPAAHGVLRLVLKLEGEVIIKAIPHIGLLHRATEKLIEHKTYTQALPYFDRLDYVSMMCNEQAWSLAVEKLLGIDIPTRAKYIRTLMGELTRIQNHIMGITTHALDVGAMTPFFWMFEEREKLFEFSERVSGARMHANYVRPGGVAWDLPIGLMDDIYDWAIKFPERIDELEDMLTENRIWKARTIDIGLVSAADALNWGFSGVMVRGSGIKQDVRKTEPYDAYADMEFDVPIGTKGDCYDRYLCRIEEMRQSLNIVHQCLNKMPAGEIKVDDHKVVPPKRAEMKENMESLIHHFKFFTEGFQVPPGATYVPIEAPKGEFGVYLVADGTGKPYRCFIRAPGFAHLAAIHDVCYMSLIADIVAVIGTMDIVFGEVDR

`Clc1ccccc1OCCCCn1cnc2ccccc21` [Compound 7925804] showed a remaining activity at 0.0001 µM [1, 3] of 106%, a remaining activity at 0.0001 µM [1, 4] of 95.7% and a remaining activity at 0.0005 µM [1, 3] of 98.1%. The remaining activity at 0.0005 µM [1, 4] was 95.4%, the remaining activity at 0.001 µM ([1]; 0.001 µM, wild-type C. elegans, mean of Rep1-4, read-out: percent in vitro complex I activity relative to solvent control, Mean) was 95.9% and the remaining activity at 0.0025 µM [1, 3] was 100%. The remaining activity at 0.0025 µM [1, 4] was 100%, the remaining activity at 0.005 µM [1, 3] was 93.7% and the remaining activity at 0.005 µM [1, 4] was 93.4%. It also gave a remaining activity at 0.013 µM [1, 3] of 92.2%, a remaining activity at 0.013 µM [1, 4] of 96.2% and a remaining activity at 0.025 µM [1, 3] of 86.9%. It also gave a remaining activity at 0.025 µM [1, 4] of 94.4%, a remaining activity at 0.063 µM [1, 3] of 83.6% and a remaining activity at 0.063 µM [1, 4] of 81.6%. The remaining activity at 0.125 µM [1, 3] was 65.6%, the remaining activity at 0.125 µM [1, 4] was 64.9% and the remaining activity at 0.313 µM [1, 3] was 53.9%. For the same compound, the remaining activity at 0.313 µM [1, 4] was 47.4%, the remaining activity at 0.625 µM ([1]; 0.625 µM, wild-type C. elegans, mean of Rep1-4, read-out: percent in vitro complex I activity relative to solvent control, Mean) was 32.7% and the remaining activity at 1.5 µM ([1]; 1.5 µM, wild-type C. elegans, mean of Rep1-4, read-out: percent in vitro complex I activity relative to solvent control, Mean) was 15.5%. For the same compound, the remaining activity at 3 µM ([1]; 3 µM, wild-type C. elegans, mean of Rep1-4, read-out: percent in vitro complex I activity relative to solvent control, Mean) was 8.88%, the remaining activity at 15 µM ([1]; 15 µM, wild-type C. elegans, mean of Rep1-4, read-out: percent in vitro complex I activity relative to solvent control, Mean) was 2.59% and the remaining activity at 37.5 µM ([1]; 37.5 µM, wild-type C. elegans, mean of Rep1-4, read-out: percent in vitro complex I activity relative to solvent control, Mean) was 2.95%. For the same compound, the remaining activity at 75 µM ([1]; 75 µM, wild-type C. elegans, mean of Rep1-4, read-out: percent in vitro complex I activity relative to solvent control, Mean) was 6.38%, the activity at 0.0001 µM ([1]; Dose 0.0001 µM, read-out: C. elegans mitochondrial complex I activity) was 95.7% and the activity at 0.0005 µM ([1]; Dose 0.0005 µM, read-out: C. elegans mitochondrial complex I activity) was 95.4%. For the same compound, the activity at 0.001 µM ([1]; Dose 0.001 µM, read-out: C. elegans mitochondrial complex I activity) was 95.9%, the activity at 0.0025 µM ([1]; Dose 0.0025 µM, read-out: C. elegans mitochondrial complex I activity) was 100% and the activity at 0.005 µM ([1]; Dose 0.005 µM, read-out: C. elegans mitochondrial complex I activity) was 93.4%. For the same compound, the activity at 0.013 µM ([1]; Dose 0.013 µM, read-out: C. elegans mitochondrial complex I activity) was 96.2%, the activity at 0.025 µM ([1]; Dose 0.025 µM, read-out: C. elegans mitochondrial complex I activity) was 94.4% and the activity at 0.063 µM ([1]; Dose 0.063 µM, read-out: C. elegans mitochondrial complex I activity) was 81.6%. The activity at 0.125 µM ([1]; Dose 0.125 µM, read-out: C. elegans mitochondrial complex I activity) was 64.9%, the activity at 0.313 µM ([1]; Dose 0.313 µM, read-out: C. elegans mitochondrial complex I activity) was 47.4% and the activity at 0.625 µM ([1]; Dose 0.625 µM, read-out: C. elegans mitochondrial complex I activity) was 32.7%. It also gave an activity at 1.5 µM ([1]; Dose 1.5 µM, read-out: C. elegans mitochondrial complex I activity) of 15.5%, an activity at 3 µM ([1]; Dose 3 µM, read-out: C. elegans mitochondrial complex I activity) of 8.88% and an activity at 15 µM ([1]; Dose 15 µM, read-out: C. elegans mitochondrial complex I activity) of 2.59%. It also gave an activity at 37.5 µM ([1]; Dose 37.5 µM, read-out: C. elegans mitochondrial complex I activity) of 2.95%, an activity at 75 µM ([1]; Dose 75 µM, read-out: C. elegans mitochondrial complex I activity) of 6.38% and an IC50 ([1]; in vitro complex I dose response on C. elegans mitochondria, average of at least two biological replicates, fit in R (DRC), read-out: IC50 C. elegans complex I) of 270 nM. The “Log IC50 C. elegans complex I” value ([1]; log10 of IC50 in µM, C. elegans mitochondria) was -0.57 µM, the IC50 ([1]; wild-type C. elegans mitochondria, estimated from fitted dose-response curves, read-out: C. elegans Complex I IC50) was 270 nM and the IC50 ([2]; B. taurus heart mitochondria, estimated from fitted dose-response curves, read-out: B. taurus Complex I IC50) was 1350 nM. It also gave an activity at 0.0001 µM ([2]; Dose 0.0001 µM, read-out: B. taurus mitochondrial complex I activity) of 106%, an activity at 0.0005 µM ([2]; Dose 0.0005 µM, read-out: B. taurus mitochondrial complex I activity) of 116% and an activity at 0.001 µM ([2]; Dose 0.001 µM, read-out: B. taurus mitochondrial complex I activity) of 117%. The activity at 0.0025 µM ([2]; Dose 0.0025 µM, read-out: B. taurus mitochondrial complex I activity) was 118%, the activity at 0.005 µM ([2]; Dose 0.005 µM, read-out: B. taurus mitochondrial complex I activity) was 118% and the activity at 0.013 µM ([2]; Dose 0.013 µM, read-out: B. taurus mitochondrial complex I activity) was 117%. The activity at 0.025 µM ([2]; Dose 0.025 µM, read-out: B. taurus mitochondrial complex I activity) was 116%, the activity at 0.063 µM ([2]; Dose 0.063 µM, read-out: B. taurus mitochondrial complex I activity) was 111% and the activity at 0.125 µM ([2]; Dose 0.125 µM, read-out: B. taurus mitochondrial complex I activity) was 99.3%. For the same compound, the activity at 0.313 µM ([2]; Dose 0.313 µM, read-out: B. taurus mitochondrial complex I activity) was 90.5%, the activity at 0.625 µM ([2]; Dose 0.625 µM, read-out: B. taurus mitochondrial complex I activity) was 75.5% and the activity at 1.5 µM ([2]; Dose 1.5 µM, read-out: B. taurus mitochondrial complex I activity) was 54.8%. For the same compound, the activity at 3 µM ([2]; Dose 3 µM, read-out: B. taurus mitochondrial complex I activity) was 39.2%, the activity at 15 µM ([2]; Dose 15 µM, read-out: B. taurus mitochondrial complex I activity) was 9.9% and the activity at 37.5 µM ([2]; Dose 37.5 µM, read-out: B. taurus mitochondrial complex I activity) was 3.53%. The activity at 75 µM ([2]; Dose 75 µM, read-out: B. taurus mitochondrial complex I activity) was 2.37% and the “Log IC50 B. taurus complex I” value ([2]; log10 of IC50 in µM, B. taurus mitochondria) was 0.13 µM.
